{"source": "patent US20110105434A1", "about": "“2-AMINO PURINE DERIVATIVES AND THEIR USE AS ANTI-HERPETIC AGENTS” (priority 2007, published 2011)", "key": {"patient lung function": {"test_system": "patient lung function", "assay": "lung function by blood oxygenation (pulse oximetry)", "assay_type": "in vivo, human", "text": "Still another example of improvement that the inventor has discovered is improved pulmonary function. […] The pulmonary function was increased to 96% SATS by using the very high dose treatment of this invention. […] Thus the method of this invention can treat and reverse pulmonary hypertension and pulmonary fibrosis. […] Improvements of this kind in this range with this kind of patient (no known existing lung disease) are unusual. Thus, another aspect of this invention is a method to improve pulmonary function by administering a compound in accordance with the teachings herein. Treatments which cause similar improvements in patients with lung disease are direct acting relaxants upon the muscles of the vessels and the airways of the lung. The compounds of this invention have no such direct effect, and can only relax these critical lung muscles by suppressing the herpetically-induced “hypertonus” or resting tone of these muscles which was elevated above normal tone by the herpetic activity in the cells of the sympathetic chain which control these muscles.\nAn improvement in lung function was seen, possibly via relief of pulmonary hypertension, while taking famciclovir at 300 mg/kg per day. […] The patient's oxyhemoglobin increased from 92% to 96%. This small improvement is significant for this parameter in the 90%-100% range. […]"}, "[1]": {"test_system": "patient with nutcracker esophagus", "assay": "nutcracker esophagus spasms", "assay_type": "in vivo, human", "details": "300 mg/kg per day", "text": "Another condition experienced by the patient related to muscle spasms referred to as the “nutcracker esophagus.” This condition involves very painful spasms of the esophagus caused by food touching the hypersensitive “trigger points” inside the esophagus. These spasms can persist from minutes to hours. […] The condition recurs within a few hours when the drug is stopped."}, "[2]": {"test_system": "patient with aseptic meningitis", "assay": "treatment of aseptic meningioencephalitis / aseptic meningitis", "assay_type": "in vivo, human", "text": "The inventor thought that the cause of the AME was the patient's herpes infection that had spread internally to the brain and meninges. […] Because the product inserts for the anti-viral products on the market ([…]®) all warned against using increased doses of the product because of the fear of further renal damage, there was reason not to use increased doses beyond those of '114. […] A patient weighing about 100 kg having multiple signs or symptoms of autoimmune disease had been ingesting famciclovir for several years at about 10 g per day taken 4 times daily during a 24 hour period. While the subject's condition was tolerable, they were in a regular state of pain in the joints and had other signs or symptoms discussed below. They experienced significant headache pain, which was diagnosed as aseptic meningitis, which was discovered to be treatable initially using 340 mg of famciclovir per kg body weight. […] The inflammation and pain are therefore thought to be caused by the immune attack on the infected tissues. Within hours of taking the high doses of famciclovir, the patient experienced at least 60% relief of the extremely painful and debilitating symptoms of meningitis. […] The Shalabi, et al. report is discouraging. According to the authors, the disease is self-resolving. Without a double-blind study, it was not possible to detect the contribution of acyclovir to the recovery."}, "[3]": {"test_system": "patient with Raynaud's syndrome", "assay": "Raynaud's syndrome signs or symptoms", "assay_type": "in vivo, human", "details": "300 mg/kg per day in four equal doses over 24 hours", "text": "(§1) This example sets forth the treatment of a patient with signs or symptoms of disease associated with reduced blood flow to an organ or tissue (correlated with hypertonicity of the associated blood vessels) using high doses of famciclovir, a compound of Formula (II) where B is H and each of R1 and R2 is CH3C(O)—, at a level and under conditions as explained below.\n(§2) A patient weighing about 100 kg having multiple signs or symptoms of autoimmune disease had been ingesting famciclovir for several years at about 10 g per day taken 4 times daily during a 24 hour period. While the subject's condition was tolerable, they were in a regular state of pain in the joints and had other signs or symptoms discussed below.\nThe patient also presented signs or symptoms of Raynaud's syndrome, which involves marked or severe vasoconstriction and ischemia in the extremities, usually fingers and toes. As a result, the patient often experienced extreme pain, cold, discoloration, lack of sensation and weakness in the affected parts. […] The signs or symptoms returned when the frequency of taking the drug was lowered from once every 6 hours to once every 10 hours."}, "[4]": {"test_system": "patient with irritable bowel syndrome", "assay": "irritable bowel syndrome signs or symptoms", "assay_type": "in vivo, human", "text": "as §1, §2\nThe patient also presented with irritable bowel syndrome (IBS) signs or symptoms, such as severe distention, cramps and pain spasms. After increasing intake of famciclovir to a maintenance level of 300 mg/kg per day, the patient experienced a dramatic improvement. […] The distended waist circumference was reduced from 44 inches to 38 inches over a period of days, and pain was about 90% relieved. Since the patient experienced no weight loss, the reduction in distention was due to the relief of bowel spasms."}, "[5]": {"test_system": "patients with autoimmune disease", "assay": "pain and signs or symptoms of autoimmune disease in general", "assay_type": "in vivo, human", "details": "very high levels", "protocol": "After the drugs take effect, usually in less than an hour, the pain is at least 50% reduced or disappears. This is a particularly surprising and useful discovery.\nIn the past, it was observed, that a patient that stopped increasing the dosage of the anti-herpes drugs at the threshold of pain rarely achieves the relief of the autoimmune signs or symptoms. Patients who exceed the pain threshold and take over 20 g per day (over 200 mg/kg/day) start experiencing a reduction in autoimmune symptoms for prolonged periods of time. The pain in such patients eventually disappears. Patients who take even higher doses, 30 g per day for a 100 kg subject (300 mg/kg) and higher, experience a continuous relief of at least 90% of all of their autoimmune signs or symptoms, including pain, as long as they continue taking the drug.\nMost importantly, the present invention teaches alleviation of pain associated with autoimmune disease. The prior art, including the '114 patent, teaches to use pain as guide when adjusting the maximum dose of the anti-herpes drug. However, it is now disclosed that a patient should tolerate the pain during the initial period of taking extremely high doses of anti-herpes drugs. After the drugs take effect, usually in less than an hour, the pain is at least 50% reduced or disappears. […]"}, "[6]": {"details": "approved oral dose range; cited from earlier work"}, "[7]": {"test_system": "patient with fibromyalgia", "assay": "fibromyalgia pain", "assay_type": "in vivo, human", "details": "300 mg/kg per day", "protocol": "Yet another effect was alleviation of fibromyalgia: The pain was reduced by about 95% at 300 mg/kg of famciclovir per day."}}}
{"smiles": "CC(=O)OCC(CCn1cnc2cnc(N)nc21)COC(C)=O", "note": "[famciclovir, 2-amino-9-(4-acetoxy-3-acetoxymethylbut-1-yl)purine]", "values": [{"measurement": "pulse O2 (oxyhemoglobin)", "setting": "patient lung function; after six months of 300 mg/kg per day, from 92%", "result": 96, "unit": "%"}, {"measurement": "pulse O2 (oxyhemoglobin)", "setting": "patient lung function; several years taking about 100 mg/kg", "result": 92, "unit": "%"}, {"measurement": "nutcracker esophagus condition", "setting": "[1]", "result": "completely relieved and prevented"}, {"measurement": "unremitting severe symptoms of aseptic meningitis", "setting": "[2]; 340 mg/kg per day, maintained at 300 mg/kg/day", "result": "quickly dispersed"}, {"measurement": "relief of symptoms of meningitis", "setting": "[2]; 340 mg/kg, within hours of taking", "result": "at least 60%"}, {"measurement": "treating the AME", "setting": "[2]; maximum dose of 120 mg/kg body weight as taught in '114", "result": "ineffective"}, {"measurement": "acute pain and the AME", "setting": "[2]; more than 250, e.g. 340 to 400 mg/kg/day", "result": "completely stopped"}, {"measurement": "Raynaud's signs or symptoms (pain, cold, discoloration, lack of sensation, weakness)", "setting": "[3]", "result": "dramatically abated"}, {"measurement": "IBS pain relieved", "setting": "[4]; 300 mg/kg per day", "result": "about 90%"}, {"measurement": "distended waist circumference", "setting": "[4]; 300 mg/kg per day, over a period of days, reduced from 44 inches", "result": 38, "unit": "inches"}, {"measurement": "IBS pain spasms", "setting": "[4]; maintenance level of 300 mg/kg per day", "result": "dramatically decreased"}, {"measurement": "pain associated with autoimmune disease", "setting": "[5]", "result": "immediate relief"}, {"measurement": "absorption (dose linearity)", "setting": "[6]", "result": "linear"}, {"measurement": "fibromyalgia pain reduced", "setting": "[7]", "result": "about 95%"}]}
